From ChEMBL document CHEMBL3868604, “Optimization and bioevaluation of Cdc37-derived peptides: An insight into Hsp90-Cdc37 protein-protein interaction modulators” (Bioorg Med Chem, 2017)
Active and inactive are the calls of the source. No cut-off for these calls is given here.

Experiments:
Heat shock protein HSP90 [1] = target: T1, Heat shock protein HSP90 (Homo sapiens, UniProt P07900+P08238); assay: Inhibition of FITC-geldanamycin binding to N-terminal GST-tagged Hsp90 (unknown origin) expressed in Escherichia coli at 100 uM measured after 15 mins by fluorescence polarization assay relative to control
Heat shock protein HSP90 [2] = target: T1, Heat shock protein HSP90; assay: Binding affinity to N-terminal GST-tagged Hsp90 (unknown origin) expressed in Escherichia coli by ITC method
Homo sapiens = organism: Homo sapiens; assay: Inhibition of N-terminal GST-tagged Hsp90 (unknown origin)-His-tagged Cdc37 middle domain (unknown origin) interaction expressed in Escherichia coli at 50 uM preincubated for 30 mins with GST-tagged Hsp90 (unknown origin) followed by addition of His-tagged Cdc37 middle domain (unknown origin) measured after 1 hr by GST-pulldown assay

Compound	inhibition (Heat shock protein HSP90 [1]) [%]	Kd (Heat shock protein HSP90 [2]) [µM]	inhibition (Homo sapiens)
Ac-KHFGMLRRW-NH2	< 10	10.07	–
Ac-KHFGMLRRWDD-NH2	< 10	6.9	–
Ac-KHFGMLRR-NH2	< 10	7.41	–
Ac-HFGMLRR-NH2	< 10	5.99	Active
CC(C)c1cc(C(=O)N2Cc3ccc(CN4CCN(C)CC4)cc3C2)c(O)cc1O	99.8	–	–
Ac-KHFGMLRRWD-NH2	< 10	21	–
